The term IC50 denotes the point on the concentration scale where inhibition reaches its midpoint.

The structures appear in SMILES notation. Like-named read-outs stand apart in the source and are kept apart here.

The target in this test is full-length human ATR protein (Homo sapiens (Human), UniProt Q13535). Put plainly: Binding assay ATR (TR-FRET tracer displacement). To be noted: TR-FRET. In short, it runs like this:
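Full-length human GST-ATR co-purified with ATRIP, pre-complexed 30 min at 22 °C with anti-GST-Tb antibody, then pre-bound with compound 10 min. Tracer A or B added (2 µl of 100 nM solution), 30 min at 22 °C.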
Background: Time-resolved FRET reads energy transfer from a long-lived donor to a nearby acceptor.

The mark [1] stands for this setting: tracer A, read-out: ATR binding (tracer A) IC50.
Setting [2] is: tracer B, read-out: ATR binding (tracer B) IC50.

full-length human ATR protein, sequence (Q13535 other isoform, or with tags, fused parts or gaps): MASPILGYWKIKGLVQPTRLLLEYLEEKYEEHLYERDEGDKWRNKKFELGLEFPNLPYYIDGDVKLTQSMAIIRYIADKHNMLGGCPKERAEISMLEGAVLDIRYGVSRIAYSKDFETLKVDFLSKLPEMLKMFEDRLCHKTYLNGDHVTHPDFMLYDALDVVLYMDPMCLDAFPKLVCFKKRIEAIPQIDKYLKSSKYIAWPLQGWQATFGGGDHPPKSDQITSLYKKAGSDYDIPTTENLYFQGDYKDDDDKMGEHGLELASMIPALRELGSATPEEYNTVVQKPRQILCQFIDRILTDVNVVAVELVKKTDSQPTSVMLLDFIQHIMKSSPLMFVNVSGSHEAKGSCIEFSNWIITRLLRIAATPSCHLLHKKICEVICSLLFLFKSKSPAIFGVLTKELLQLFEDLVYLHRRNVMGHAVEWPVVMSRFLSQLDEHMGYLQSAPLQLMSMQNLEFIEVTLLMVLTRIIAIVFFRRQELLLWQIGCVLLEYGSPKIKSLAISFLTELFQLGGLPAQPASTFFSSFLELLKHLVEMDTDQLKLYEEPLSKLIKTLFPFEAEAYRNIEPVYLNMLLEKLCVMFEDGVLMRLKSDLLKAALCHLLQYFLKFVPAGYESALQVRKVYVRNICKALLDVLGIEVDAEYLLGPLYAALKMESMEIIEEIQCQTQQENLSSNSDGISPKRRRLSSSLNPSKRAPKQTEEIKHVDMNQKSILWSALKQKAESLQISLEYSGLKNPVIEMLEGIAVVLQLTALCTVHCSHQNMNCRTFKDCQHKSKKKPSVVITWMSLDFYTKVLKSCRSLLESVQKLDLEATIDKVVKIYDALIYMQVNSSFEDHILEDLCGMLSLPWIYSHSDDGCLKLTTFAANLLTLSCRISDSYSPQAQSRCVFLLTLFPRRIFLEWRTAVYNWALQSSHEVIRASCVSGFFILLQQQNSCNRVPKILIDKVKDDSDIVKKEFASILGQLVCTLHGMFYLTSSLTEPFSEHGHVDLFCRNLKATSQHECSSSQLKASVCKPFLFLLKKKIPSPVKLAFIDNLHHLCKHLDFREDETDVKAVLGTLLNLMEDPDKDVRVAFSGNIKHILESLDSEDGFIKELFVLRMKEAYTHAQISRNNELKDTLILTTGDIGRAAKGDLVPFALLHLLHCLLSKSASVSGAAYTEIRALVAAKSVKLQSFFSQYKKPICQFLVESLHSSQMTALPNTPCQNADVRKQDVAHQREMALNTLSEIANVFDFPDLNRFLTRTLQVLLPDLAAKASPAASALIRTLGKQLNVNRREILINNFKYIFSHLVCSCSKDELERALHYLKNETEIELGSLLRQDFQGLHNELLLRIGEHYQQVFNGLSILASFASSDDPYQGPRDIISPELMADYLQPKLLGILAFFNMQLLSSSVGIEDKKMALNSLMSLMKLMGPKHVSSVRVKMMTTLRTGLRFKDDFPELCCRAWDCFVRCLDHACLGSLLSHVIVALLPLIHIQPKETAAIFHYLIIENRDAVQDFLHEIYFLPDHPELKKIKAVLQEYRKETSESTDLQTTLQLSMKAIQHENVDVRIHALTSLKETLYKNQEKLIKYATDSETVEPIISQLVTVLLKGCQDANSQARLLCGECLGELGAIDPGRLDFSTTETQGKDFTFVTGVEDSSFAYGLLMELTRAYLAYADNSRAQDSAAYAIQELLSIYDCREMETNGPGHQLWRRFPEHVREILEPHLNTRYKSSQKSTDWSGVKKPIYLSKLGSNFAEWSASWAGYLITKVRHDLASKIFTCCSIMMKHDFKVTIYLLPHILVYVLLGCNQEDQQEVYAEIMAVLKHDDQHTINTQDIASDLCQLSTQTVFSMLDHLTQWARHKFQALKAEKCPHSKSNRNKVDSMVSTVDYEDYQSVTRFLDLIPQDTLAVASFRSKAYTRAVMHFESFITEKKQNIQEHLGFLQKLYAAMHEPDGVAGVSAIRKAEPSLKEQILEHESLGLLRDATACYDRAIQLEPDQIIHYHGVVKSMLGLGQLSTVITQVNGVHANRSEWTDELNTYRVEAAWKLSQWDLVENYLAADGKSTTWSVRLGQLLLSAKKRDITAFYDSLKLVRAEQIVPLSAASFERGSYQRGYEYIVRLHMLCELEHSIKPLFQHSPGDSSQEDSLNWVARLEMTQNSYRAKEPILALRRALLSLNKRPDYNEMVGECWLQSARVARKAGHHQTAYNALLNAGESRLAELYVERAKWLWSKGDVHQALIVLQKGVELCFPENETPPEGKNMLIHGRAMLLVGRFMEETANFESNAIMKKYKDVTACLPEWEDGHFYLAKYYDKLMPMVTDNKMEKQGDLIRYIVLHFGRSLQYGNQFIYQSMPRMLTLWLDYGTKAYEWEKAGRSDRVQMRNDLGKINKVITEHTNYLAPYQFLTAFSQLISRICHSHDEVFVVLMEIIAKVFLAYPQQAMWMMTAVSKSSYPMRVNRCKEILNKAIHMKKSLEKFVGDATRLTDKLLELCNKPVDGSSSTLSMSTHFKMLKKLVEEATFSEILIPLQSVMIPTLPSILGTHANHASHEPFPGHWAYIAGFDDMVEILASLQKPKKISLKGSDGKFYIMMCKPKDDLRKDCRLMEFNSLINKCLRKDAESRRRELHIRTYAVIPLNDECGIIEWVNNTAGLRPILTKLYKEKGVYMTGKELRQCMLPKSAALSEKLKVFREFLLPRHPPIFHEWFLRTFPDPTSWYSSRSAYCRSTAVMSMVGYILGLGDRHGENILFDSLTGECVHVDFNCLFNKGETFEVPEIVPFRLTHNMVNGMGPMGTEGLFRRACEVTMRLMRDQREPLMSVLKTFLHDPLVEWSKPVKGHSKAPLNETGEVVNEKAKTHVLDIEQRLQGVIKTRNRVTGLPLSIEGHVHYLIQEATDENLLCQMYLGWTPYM
full-length human ATR protein, sequence (Q8WXE1 other isoform, or with tags, fused parts or gaps partner): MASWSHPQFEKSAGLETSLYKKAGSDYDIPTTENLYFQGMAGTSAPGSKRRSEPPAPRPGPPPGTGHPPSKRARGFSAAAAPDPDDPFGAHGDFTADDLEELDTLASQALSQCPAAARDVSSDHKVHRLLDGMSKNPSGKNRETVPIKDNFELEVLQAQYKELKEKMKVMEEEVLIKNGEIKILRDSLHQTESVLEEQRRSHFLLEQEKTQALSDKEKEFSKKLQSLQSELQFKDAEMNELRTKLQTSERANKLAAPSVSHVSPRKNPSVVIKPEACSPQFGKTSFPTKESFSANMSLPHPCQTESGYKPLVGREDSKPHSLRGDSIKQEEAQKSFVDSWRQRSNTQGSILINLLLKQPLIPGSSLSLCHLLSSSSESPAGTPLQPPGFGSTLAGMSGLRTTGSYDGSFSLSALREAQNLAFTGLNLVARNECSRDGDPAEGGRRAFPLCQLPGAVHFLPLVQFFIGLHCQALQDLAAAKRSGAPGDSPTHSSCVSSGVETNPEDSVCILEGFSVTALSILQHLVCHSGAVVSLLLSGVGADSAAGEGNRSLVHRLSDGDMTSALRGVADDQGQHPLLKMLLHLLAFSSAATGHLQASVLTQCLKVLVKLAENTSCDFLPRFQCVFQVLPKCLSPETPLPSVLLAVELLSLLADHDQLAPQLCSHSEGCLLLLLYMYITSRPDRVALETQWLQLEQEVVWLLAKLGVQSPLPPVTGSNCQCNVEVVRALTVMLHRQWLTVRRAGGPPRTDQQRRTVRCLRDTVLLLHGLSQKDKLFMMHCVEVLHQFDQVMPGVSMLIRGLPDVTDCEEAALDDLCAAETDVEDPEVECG

With `C[C@@H]1CN[C@@H](C)CN1c1cc(N2CCOCC2)nc2c(-c3ccn[nH]3)nccc12` (relative stereo) [Example 178, 4-[(trans)-2,5-dimethylpiperazin-1-yl]-2-(morpholin-4-yl)-8-(1H-pyrazol-5-yl)-1,7-naphthyridine], the IC50 under setting [1] worked out at 377 nM.
The same measure, in the same setting: next, `C[C@@H]1COCCN1c1cc(P(C)(C)=O)c2ccnc(-c3ccn[nH]3)c2n1` [Example 142, 4-(dimethylphosphoryl)-2-[(3R)-3-methylmorpholin-4-yl]-8-(1H-pyrazol-5-yl)-1,7-naphthyridine]: 44.1 nM; `C[C@@H]1COCCN1c1cc(-c2ccc(F)nc2F)c2ccnc(-c3ccn[nH]3)c2n1` [Example 228, 4-(2,6-difluoropyridin-3-yl)-2-[(3R)-3-methylmorpholin-4-yl]-8-(1H-pyrazol-5-yl)-1,7-naphthyridine]: 30.1 nM.
Regarding `Clc1ccccc1-c1cc(N2CCOCC2)nc2c(-c3ccn[nH]3)nccc12` [Example 333, 4-(2-chlorophenyl)-2-(morpholin-4-yl)-8-(1H-pyrazol-5-yl)-1,7-naphthyridine], the concentration for half-maximal inhibition (IC50) under setting [1] turned out to be 25.3 nM.
Regarding `Cc1c(-c2cc(N3CCOC[C@H]3C)nc3c(-c4ccn[nH]4)nccc23)cnn1C` [Example 250, 4-(1,5-dimethyl-1H-pyrazol-4-yl)-2-[(3R)-3-methylmorpholin-4-yl]-8-(1H-pyrazol-5-yl)-1,7-naphthyridine], under setting [1], the IC50 was 6.62 nM.
The same measure, in the same setting: next, `O=C1OCCCN1c1cc(N2CCOCC2)nc2c(-c3ccn[nH]3)nccc12` [Example 225, 3-[2-(morpholin-4-yl)-8-(1H-pyrazol-5-yl)-1,7-naphthyridin-4-yl]-1,3-oxazinan-2-one]: 447 nM; `C[C@@H]1COCCN1c1cc(N(C)C2CC2)c2ccnc(-c3ccn[nH]3)c2n1` [Example 85, N-cyclopropyl-N-methyl-2-[(3R)-3-methylmorpholin-4-yl]-8-(1H-pyrazol-5-yl)-1,7-naphthyridin-4-amine]: 11.9 nM.
The same measure, in the same setting: the result for `C[C@@H]1COCCN1c1cc(-c2cc(F)ccc2N)c2ccnc(-c3ccn[nH]3)c2n1` [Example 75, 4-fluoro-2-[2-[(3R)-3-methylmorpholin-4-yl]-8-(1H-pyrazol-5-yl)-1,7-naphthyridin-4-yl]aniline] reads 6.97 nM; that for `COc1cnccc1-c1cc(N2CCOC[C@H]2C)nc2c(-c3ccn[nH]3)nccc12` [Example 227, 4-(3-methoxypyridin-4-yl)-2-[(3R)-3-methylmorpholin-4-yl]-8-(1H-pyrazol-5-yl)-1,7-naphthyridine], 75.5 nM; that for `C[C@@H]1COCCN1c1cc(N=S(C)(=O)c2ccccc2F)c2ccnc(-c3ccn[nH]3)c2n1` (single isomer, unassigned) [Example 140], 76.5 nM.
Same read-out and setting: the result for `Cc1nn(C)cc1-c1cc(N2CCOC[C@H]2C)nc2c(-c3ccn[nH]3)nccc12` [Example 249, 4-(1,3-dimethyl-1H-pyrazol-4-yl)-2-[(3R)-3-methylmorpholin-4-yl]-8-(1H-pyrazol-5-yl)-1,7-naphthyridine] reads 13.7 nM.
Regarding `O=C1OCCC1Oc1cc(N2CCOCC2)nc2c(-c3ccn[nH]3)nccc12` (centres unmarked) [Example 47, 3-{[2-(morpholin-4-yl)-8-(1H-pyrazol-5-yl)-1,7-naphthyridin-4-yl]oxy}dihydrofuran-2(3H)-one], the half-maximal inhibitory concentration (IC50) under setting [1] was determined as 1390 nM.
On to `CC(C)(O)COc1cc(N2CCOCC2)nc2c(-c3ccn[nH]3)nccc12` [Example 45, 2-methyl-1-{[2-(morpholin-4-yl)-8-(1H-pyrazol-5-yl)-1,7-naphthyridin-4-yl]oxy}propan-2-ol], for which the IC50 under setting [1] is 293 nM.
The same measure, in the same setting: the result for `c1cc(-c2cc(N3CCOCC3)nc3c(-c4ccn[nH]4)nccc23)c2ccncc2c1` [Example 397, 4-(isoquinolin-5-yl)-2-(morpholin-4-yl)-8-(1H-pyrazol-5-yl)-1,7-naphthyridine] reads 95.5 nM; that for `COc1cccc(-c2cc(N3CCOCC3)nc3c(-c4ccn[nH]4)nccc23)c1F` [Example 317, 4-(2-fluoro-3-methoxyphenyl)-2-(morpholin-4-yl)-8-(1H-pyrazol-5-yl)-1,7-naphthyridine], 66.5 nM; that for `CN(C)c1ccccc1-c1cc(N2CCOCC2)nc2c(-c3ccn[nH]3)nccc12` [Example 321, N,N-dimethyl-2-[2-(morpholin-4-yl)-8-(1H-pyrazol-5-yl)-1,7-naphthyridin-4-yl]aniline], 44.4 nM.
On the same count and under the same terms, the result for `NC(=O)C1CCCN(c2cc(N3CCOCC3)nc3c(-c4ccn[nH]4)nccc23)C1` (centres unmarked) [Example 416, 1-[2-(morpholin-4-yl)-8-(1H-pyrazol-5-yl)-1,7-naphthyridin-4-yl]piperidine-3-carboxamide] reads 251 nM.
As for `C[C@@H]1CN(c2cc(N3CCOCC3)nc3c(-c4ccn[nH]4)nccc23)C[C@H](C)N1` [Example 179, 4-[(cis)-3,5-dimethylpiperazin-1-yl]-2-(morpholin-4-yl)-8-(1H-pyrazol-5-yl)-1,7-naphthyridine], the concentration for half-maximal inhibition (IC50) under setting [1] turned out to be 454 nM.
Consider `CC(C)Oc1cc(N2[C@H](C)COC[C@@H]2C)nc2c(-c3ccn[nH]3)nccc12` [Example 58, 2-[(3R,5S)-3,5-dimethylmorpholin-4-yl]-4-isopropoxy-8-(1H-pyrazol-5-yl)-1,7-naphthyridine], for which the half-maximal inhibitory concentration (IC50) under setting [1] turned out to be 413 nM and the IC50 under setting [2] came to 615 nM.
Take `COc1ccc(-c2cc(N3CCOCC3)nc3c(-c4ccn[nH]4)nccc23)cc1` [Example 309, 4-(4-methoxyphenyl)-2-(morpholin-4-yl)-8-(1H-pyrazol-5-yl)-1,7-naphthyridine]: the 50% inhibitory concentration (IC50) under setting [1] came out at 146 nM.
Regarding `c1cc2c(C3CCOCC3)cc(N3CCOCC3)nc2c(-c2cc[nH]n2)n1` [Example 60, 2-(morpholin-4-yl)-8-(1H-pyrazol-5-yl)-4-(tetrahydro-2H-pyran-4-yl)-1,7-naphthyridine], the concentration for half-maximal inhibition (IC50) is, setting by setting: under setting [1], 24.1 nM; under setting [2], 15.7 nM.
Turning to `Cc1csc(-c2cc(N3CCOC[C@H]3C)nc3c(-c4ccn[nH]4)nccc23)c1` [Example 239, 2-[(3R)-3-methylmorpholin-4-yl]-4-(4-methylthiophen-2-yl)-8-(1H-pyrazol-5-yl)-1,7-naphthyridine], under setting [1], the IC50 was 20.3 nM.
On the same count and under the same terms, the result for `CCS(=O)(CC)=Nc1cc(N2CCOC[C@H]2C)nc2c(-c3ccn[nH]3)nccc12` [Example 126, 4-{[diethyl(oxido)-λ^6-sulfanylidene]amino}-2-[(3R)-3-methylmorpholin-4-yl]-8-(1H-pyrazol-5-yl)-1,7-naphthyridine] reads 21.5 nM; that for `Cc1ccsc1-c1cc(N2CCOCC2)nc2c(-c3ccn[nH]3)nccc12` [Example 373, 4-(3-methylthiophen-2-yl)-2-(morpholin-4-yl)-8-(1H-pyrazol-5-yl)-1,7-naphthyridine], 38.1 nM.
On the same count and under the same terms, next, `Nc1ncccc1-c1cc(N2CCOCC2)nc2c(-c3ccn[nH]3)nccc12` [Example 402, 3-[2-(morpholin-4-yl)-8-(1H-pyrazol-5-yl)-1,7-naphthyridin-4-yl]pyridin-2-amine]: 299 nM.
Regarding `COc1cc(N2CCOC[C@H]2C)nc2c(-c3cc[nH]n3)nccc12` [Example 53, 4-methoxy-2-((R)-3-methylmorpholin-4-yl)-8-(1H-pyrazol-3-yl)-[1,7]naphthyridine], the IC50 under setting [1] worked out at 192 nM and the IC50 under setting [2] stood at 63.5 nM.
With `C[C@@H]1COCCN1c1cc(-c2cnn(C)c2)c2ccnc(-c3ccn[nH]3)c2n1` [Example 248, 2-[(3R)-3-methylmorpholin-4-yl]-4-(1-methyl-1H-pyrazol-4-yl)-8-(1H-pyrazol-5-yl)-1,7-naphthyridine], the concentration for half-maximal inhibition (IC50) under setting [1] amounted to 24.1 nM.
Same read-out and setting: next, `Cc1cc(-c2cc(N3CCOCC3)nc3c(-c4ccn[nH]4)nccc23)cnc1F` [Example 224, 4-(6-fluoro-5-methylpyridin-3-yl)-2-(morpholin-4-yl)-8-(1H-pyrazol-5-yl)-1,7-naphthyridine]: 52.1 nM; `O=C1CCCN1c1cc(N2CCOCC2)nc2c(-c3ccn[nH]3)nccc12` [Example 215, 1-[2-(morpholin-4-yl)-8-(1H-pyrazol-5-yl)-1,7-naphthyridin-4-yl]pyrrolidin-2-one]: 317 nM.
In the case of `C[C@@H]1COCCN1c1cc(OC(F)F)c2ccnc(-c3ccn[nH]3)c2n1` [Example 172, 4-(difluoromethoxy)-2-[(3R)-3-methylmorpholin-4-yl]-8-(1H-pyrazol-5-yl)-1,7-naphthyridine], the IC50 under setting [1] is 82.8 nM.
In the case of `Cc1cc(S(C)(=O)=O)ncc1-c1cc(N2CCOC[C@H]2C)nc2c(-c3ccn[nH]3)nccc12` [Example 79, 4-[4-methyl-6-(methylsulfonyl)pyridin-3-yl]-2-[(3R)-3-methylmorpholin-4-yl]-8-(1H-pyrazol-5-yl)-1,7-naphthyridine], the IC50 under setting [1] turned out to be 12 nM.
For the compound `CC(C)Oc1cc(N2[C@H](C)COC[C@H]2C)nc2c(-c3ccn[nH]3)nccc12` [Example 59, 2-[(3R,5R)-3,5-dimethylmorpholin-4-yl]-4-isopropoxy-8-(1H-pyrazol-5-yl)-1,7-naphthyridine], the half-maximal inhibitory concentration (IC50) runs as follows: under setting [1], 730 nM; under setting [2], 1250 nM.
For the compound `C[C@@H]1COCCN1c1cc(N=S2(=O)CCOCC2)c2ccnc(-c3ccn[nH]3)c2n1` [Example 64, N-{2-[(3R)-3-methylmorpholin-4-yl]-8-(1H-pyrazol-5-yl)-1,7-naphthyridin-4-yl}-1,4λ^4-oxathian-4-imine 4-oxide], the half-inhibitory concentration (IC50) under setting [1] amounted to 27.4 nM.
For the compound `OCc1cc(N2CCOCC2)nc2c(-c3ccn[nH]3)nccc12` [Example 38, [2-(morpholin-4-yl)-8-(2H-pyrazol-3-yl)-[1,7]naphthyridine-4-yl]methanol], the IC50 under setting [1] came to 502 nM and the 50% inhibitory concentration (IC50) under setting [2] was found to be 405 nM.
In the same order, the values of `C[C@@H]1COCCN1c1cc(-c2ccc(S(C)(=N)=O)cc2)c2ccnc(-c3ccn[nH]3)c2n1` (stereo partly drawn) [Example 30, 4-[2-((R)-3-methylmorpholin-4-yl)-8-(2H-pyrazol-3-yl)-[1,7]naphthyridine-4-yl]phenyl-S-methylsulphoximide] are 22.8 nM and 9.48 nM.

These data come from US9549932B2, “2-(morpholin-4-yl)-1,7-naphthyridines” (BAYER PHARMA AKTIENGESELLSCHAFT, priority 2014, dated 2017).
